Reference: patent publication US8685981B2, “Cyclic compound having hetero atom” (Daiichi Sankyo Company, Limited, priority 2009, dated 2014)

system: ST2 cells, murine bone marrow-derived stromal cells; assay: Osteoblast differentiation test (alkaline phosphatase activity); type: cell-based; settings: Mus musculus, ST-2, 96 h, at 0.03 μg/mL, four days of culturing, control group (0.1% DMSO) set at 100%, read-out: increase (%) in alkaline phosphatase activity
Method: ST2 cells, murine bone marrow-derived stromal cells, (obtained from RIKEN) were used.
In this test, α-MEM media (obtained from GIBCO BRL Cat. No. 10370-021) containing 10% (v/v) of inactivated calf serum (obtained from Hyclone Laboratories, Inc.) and 1% (v/v) of Penicillin-Streptomycin Liquid (obtained from GIBCO BRL Cat. No. 15140-122) (hereinbelow, abbreviated as 10%-FBS-αMEM) were used. In this test, all culturing was performed in a CO2 incubator (37° C., 95% humidity, 5% CO2).
The aforementioned cells were detached with 2 mL of a 0.25% trypsin solution (obtained from GIBCO BRL Cat. No. 15050-065) and dispersed in 10 mL of 10%-FBS-αMEM. Subsequently, the cells were collected by centrifugation (25° C., 800 rpm, five minutes). Then, a cell suspension containing 40000 of the cells/mL of 10%-FBS-αMEM was prepared. The cell suspension was then dispensed into 96-well plates (the product of Falcon), 100 μL per well, at a density of 4000 cells/well, followed by culturing for 24 hours. To the wells except for the below-described well containing a control group, the compound was dispensed at final concentrations of 0.01, 0.03, 0.1, and 0.3 μg/ml. To the well of a control group, DMSO was dispensed at a final concentration of 0.1% (v/v). After four days of culturing, the activity of alkaline phosphatase (ALP) was measured in each group.
The measurement of ALP activity was performed as follows. That is, the medium in each well of the culture plates was completely removed. Each well was then washed by dispensing 100 μL of Dulbecco's phosphate buffer (obtained from GIBCO BRL Cat. No. 14190-144) and then removing it. A cell lysate solution containing 10 mM MgCl2 and 2% (v/v) TritonX-100 (Sigma) was prepared and dispensed at 50 μL/well, followed by stirring at room temperature for five minutes. An ALP substrate solution containing 50 mM diethanolamine (Wako pure chemical industries, Ltd., Cat. No. 099-03112) and 20 mM p-nitrophenyl phosphate (Wako pure chemical industries, Ltd., Cat. No. 147-02343) was prepared and dispensed at 50 μL/well, and the plates were left to stand at room temperature for 10 minutes. Subsequently, absorbance was measured by a microplate reader (Bio-Rad Laboratories, Inc.). Setting the measurement value of the control group of each plate at 100%, the increase (%) in alkaline phosphatase activity in the test compound-addition group was calculated, which was assessed as the degree of osteoblast differentiation.

| Structure (SMILES) | activity at 0.03 µg/mL [%] |
| --- | --- |
| COCC1CCN(c2cncc3ccc(C(N)=O)cc23)CC1 [Example 37] | ≥ 200 |
| CCOC1CCCN(c2cncc3ccc(C(N)=O)cc23)C1 (stereo not shown) [Example 38] | ≥ 200 |
| COC[C@H]1CCCN(c2cncc3ccc(C(N)=O)cc23)C1 [Example 39] | ≥ 200 |
| COC[C@@H]1CCCN(c2cncc3ccc(C(N)=O)cc23)C1 [Example 40] | ≥ 200 |
| COCCC1CCCN(c2cncc3ccc(C(N)=O)cc23)C1 (stereo not shown) [Example 41] | ≥ 200 |
| NC(=O)c1ccc2cncc(N3CCC(c4ccccc4)CC3)c2c1 [Example 42] | ≥ 200 |
| NC(=O)c1ccc2cncc(N3CCC(F)(F)CC3)c2c1 [Example 43] | ≥ 200 |
| NC(=O)c1ccc2cncc(N3CCC(C(F)(F)F)CC3)c2c1 [Example 44] | ≥ 200 |
| NC(=O)c1ccc2cncc(N3CCC(F)CC3)c2c1 [Example 45] | ≥ 200 |
| CC(=O)C1(c2ccccc2)CCN(c2cncc3ccc(C(N)=O)cc23)CC1 [Example 46] | ≥ 200 |
| CC1CCN(c2cncc3ccc(C(N)=O)cc23)CC1 [Example 47] | ≥ 200 |
| CC(=O)c1ccn(-c2cncc3ccc(C(N)=O)cc23)c1 [Example 48] | ≥ 200 |
| NC(=O)c1ccc2cncc(N3CCN(c4ccc(Cl)cc4)CC3)c2c1 [Example 49] | ≥ 200 |
| CC(=O)c1ccc(N2CCN(c3cncc4ccc(C(N)=O)cc34)CC2)cc1 [Example 50] | ≥ 200 |
| NC(=O)c1ccc2cncc(N3CCC(COC4CCCCO4)CC3)c2c1 (stereo not shown) [Example 52] | ≥ 200 |
| NC(=O)c1ccc2cncc(N3CCC(C4CCCCC4)CC3)c2c1 [Example 53] | ≥ 200 |
| NC(=O)c1ccc2cncc(N3CCC(O)(c4ccc(Cl)cc4)CC3)c2c1 [Example 54] | ≥ 200 |
| NC(=O)c1ccc2cncc(N3CCC(CO)CC3)c2c1 [Example 55] | ≥ 200 |
| NC(=O)c1ccc2cncc(N3CCCC(CO)C3)c2c1 (stereo not shown) [Example 56] | ≥ 200 |
| NC(=O)c1ccc2cncc(N3CCN(c4ccc([N+](=O)[O-])cc4)CC3)c2c1 [Example 57] | ≥ 200 |
| NC(=O)c1ccc2cncc(N3CCc4ccccc4C3)c2c1 [Example 59] | ≥ 200 |
| NC(=O)c1ccc2cncc(N3CCN(c4cccc(F)c4)CC3)c2c1 [Example 60] | ≥ 200 |
| Cc1ccc(N2CCN(c3cncc4ccc(C(N)=O)cc34)CC2)cc1 [Example 61] | ≥ 200 |
| N#Cc1ccc(N2CCN(c3cncc4ccc(C(N)=O)cc34)CC2)cc1 [Example 62] | ≥ 200 |

| Structure (SMILES) | activity at 0.03 µg/mL [%] |
| --- | --- |
| NC(=O)c1ccc2cncc(N3CCCN(c4ccccc4)CC3)c2c1 [Example 63] | ≥ 200 |
| NC(=O)c1ccc2cncc(N3CCC(Oc4ccccc4)CC3)c2c1 [Example 64] | ≥ 200 |
| NC(=O)c1ccc2cncc(N3CCC(C4CCOCC4)CC3)c2c1 [Example 65] | ≥ 200 |
| Cc1ccn(-c2cncc3ccc(C(N)=O)cc23)c1 [Example 66] | ≥ 200 |
| NC(=O)c1ccc2cncc(N3CC[C@@H]4CCCC[C@H]4C3)c2c1 [Example 67] | ≥ 200 |
| NC(=O)c1ccc2cncc(N3CCC(OCC4CCCO4)CC3)c2c1 (stereo not shown) [Example 68] | ≥ 200 |
| CC(C)(O)C1CCN(c2cncc3ccc(C(N)=O)cc23)CC1 [Example 69] | ≥ 200 |
| NC(=O)c1ccc2cncc(N3CCC(C(=O)c4ccc(F)cc4)CC3)c2c1 [Example 70] | ≥ 200 |
| NC(=O)c1ccc2cncc(N3CCC(CCOC4CCOCC4)CC3)c2c1 [Example 71] | ≥ 200 |
| CC1CCN(c2cncc3ccc(C(N)=O)cc23)C1 (stereo not shown) [Example 72] | ≥ 200 |
| COCC1CCN(c2cncc3ccc(C(N)=O)cc23)C1 (stereo not shown) [Example 73] | ≥ 200 |
| CN(C)C(=O)C1CCN(c2cncc3ccc(C(N)=O)cc23)CC1 [Example 74] | ≥ 200 |
| NC(=O)c1ccc2cncc(N3CCC(OC4CCCCO4)CC3)c2c1 (stereo not shown) [Example 75] | ≥ 200 |
| COC1CCN(c2cncc3ccc(C(N)=O)cc23)CC1 [Example 76] | ≥ 200 |
| NC(=O)c1ccc2cncc(N3CCC(COC4CCOCC4)CC3)c2c1 [Example 77] | ≥ 200 |
| NC(=O)c1ccc2cncc(N3CCN(C(=O)c4ccccc4)CC3)c2c1 [Example 78] | ≥ 200 |
| CC(=O)N1CCN(c2cncc3ccc(C(N)=O)cc23)CC1 [Example 79] | ≥ 200 |
| NC(=O)c1ccc2cncc(N3CCC(OCCOC4CCOCC4)CC3)c2c1 [Example 81] | ≥ 200 |
| CN(C)C(=O)CCC1CCN(c2cncc3ccc(C(N)=O)cc23)CC1 [Example 82] | ≥ 200 |
| NC(=O)c1ccc2cncc(N3CCC(c4ccccc4)CC3)c2n1 [Example 83] | ≥ 200 |
| COCC1CN(c2cncc3ccc(C(N)=O)cc23)CCN1c1ccccc1 (stereo not shown) [Example 84] | ≥ 200 |
| NC(=O)c1ccc2cncc(N3CCC(OCCOCCO)CC3)c2c1 [Example 85] | ≥ 200 |
| NC(=O)c1ccc2cncc(N3CCC(OCCOC4CC4)CC3)c2c1 [Example 87] | ≥ 200 |
| NC(=O)c1ccc2cncc(N3CCC(O)CC3)c2c1 [Example 89] | ≥ 200 |

| Structure (SMILES) | activity at 0.03 µg/mL [%] |
| --- | --- |
| NC(=O)c1ccc2cncc(N3CCC(OCCS(=O)(=O)N4CCOCC4)CC3)c2n1 [Example 92] | ≥ 200 |
| NC(=O)c1ccc2cncc(N3CCC(OCC(=O)N4CCOCC4)CC3)c2c1 [Example 93] | ≥ 200 |
| CN(C)C(=O)COC1CCN(c2cncc3ccc(C(N)=O)cc23)CC1 [Example 94] | ≥ 200 |
| NC(=O)c1ccc2cncc(N3CCC(COC(F)F)CC3)c2c1 [Example 95] | ≥ 200 |
| NC(=O)c1ccc2cncc(N3CCC(OCCS(=O)(=O)N4CCOCC4)CC3)c2c1 [Example 97] | ≥ 200 |
| CN(C)C(=O)N1CCN(c2cncc3ccc(C(N)=O)cc23)CC1 [Example 99] | ≥ 200 |
| NC(=O)c1ccc2cncc(N3CCC(OCC(=O)N4CCOCC4)CC3)c2n1 [Example 100] | ≥ 200 |
| CN(CCOC1CCN(c2cncc3ccc(C(N)=O)cc23)CC1)S(C)(=O)=O [Example 102] | ≥ 200 |
| NC(=O)c1ccc2cncc(N3CCCC(COC(F)F)C3)c2c1 (stereo not shown) [Example 103] | ≥ 200 |
| NC(=O)c1ccc2cncc(N3CCCC(COC(F)F)C3)c2n1 (stereo not shown) [Example 104] | ≥ 200 |
| COCC1CN(c2cncc3ccc(C(N)=O)cc23)CCO1 (stereo not shown) [Example 105] | ≥ 200 |
| CN(C)S(=O)(=O)CCOC1CCN(c2cncc3ccc(C(N)=O)cc23)CC1 [Example 106] | ≥ 200 |
| COCC1CN(c2cncc3ccc(C(N)=O)nc23)CCC1OC (stereo not shown) [Example 108] | ≥ 200 |
| COCC1CN(c2cncc3ccc(C(N)=O)cc23)CCC1OC (stereo not shown) [Example 109] | ≥ 200 |
| NC(=O)c1ccc2cncc(N3CCC(COCCOC4CCOCC4)CC3)c2n1 [Example 110] | ≥ 200 |
| CC(C)OCCOC1CCN(c2cncc3ccc(C(N)=O)nc23)CC1 [Example 111] | ≥ 200 |
| COCC1CCN(c2cncc3ccc(C(N)=O)nc23)CC1 [Example 112] | ≥ 200 |
| NC(=O)c1ccc2cncc(N3CCC(OCC(=O)N4CCCC4)CC3)c2n1 [Example 113] | ≥ 200 |
| NC(=O)c1ccc2cncc(N3CCN(C(=O)N4CCCC4)CC3)c2n1 [Example 114] | ≥ 200 |
| CCN(C)C(=O)N1CCN(c2cncc3ccc(C(N)=O)nc23)CC1 [Example 115] | ≥ 200 |
| CCN(C)C(=O)COC1CCN(c2cncc3ccc(C(N)=O)nc23)CC1 [Example 116] | ≥ 200 |
| NC(=O)c1ccc2cncc(N3CCC(OCCOC4CCOC4)CC3)c2n1 (stereo not shown) [Example 117] | ≥ 200 |
